{
  "source": "patent US20240150293A1",
  "about": "“SPIROCYCLOHEXANE DERIVATIVES, PHARMACEUTICAL COMPOSITIONS CONTAINING THEM AND THEIR USES AS ANTI-APOPTOTIC INHIBITORS” (LES LABORATOIRES SERVIER, priority 2021, published 2024)",
  "data": [
    {"molecular_target": "Mcl-1 protein (UniProtKB Q07820) (Homo sapiens (Human), UniProt Q07820)", "sequence (Q07820 whole entry)": "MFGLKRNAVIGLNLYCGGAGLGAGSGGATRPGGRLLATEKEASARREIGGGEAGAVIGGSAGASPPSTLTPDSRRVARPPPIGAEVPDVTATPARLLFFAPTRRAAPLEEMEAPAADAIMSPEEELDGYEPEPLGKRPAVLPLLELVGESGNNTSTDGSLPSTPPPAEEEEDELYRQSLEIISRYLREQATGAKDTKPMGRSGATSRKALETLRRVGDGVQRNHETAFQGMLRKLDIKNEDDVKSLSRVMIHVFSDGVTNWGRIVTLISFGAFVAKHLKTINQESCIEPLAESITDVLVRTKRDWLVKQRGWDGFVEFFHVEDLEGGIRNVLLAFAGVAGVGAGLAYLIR", "assay": "Inhibition of Mcl-1 by the fluorescence polarisation assay (Example A, Method A)", "format": "binding", "settings": "fluorescence polarization assay", "outline": "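Protein (5 nM) and fluorescein-tagged peptide tracer (1 nM) incubated with 11-point compound series for 2 h at room temperature in HEPES/NaCl/Tween 20 buffer, pH 7.4, 5% DMSO. Displacement read as decrease in polarisation; IC50 fitted by 4-parameter logistic, converted to Ki (cKi or eKi).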", "units": {"Ki": "nM"}, "values": [
      {"smiles": "O=C(O)[C@]1(Nc2cccc(Cl)c2)CC[C@]2(CC1)C(Br)=Cc1ccc(Cl)cc12", "note": "[Example 134, (1s,4s)-2′-bromo-6′-chloro-4-(3-chloroanilino)spiro[cyclohexane-1,1′-indene]-4-carboxylic acid]", "Ki": 265},
      {"smiles": "COc1cccc(N2C(=O)c3ccccc3[C@]23CC[C@@](Nc2cccc(Br)c2)(C(=O)O)CC3)c1", "note": "[Example 30, (1s,4s)-4-(3-bromoanilino)-2′-(3-methoxyphenyl)-3′-oxo-2′,3′-dihydrospiro[cyclohexane-1,1′-isoindole]-4-carboxylic acid]", "Ki": 9250},
      {"smiles": "C/C=C/C1=Cc2ccccc2[C@]12CC[C@@](Nc1cccc(Cl)c1)(C(=O)O)CC2", "note": "[Example 159, (1r,4r)-4-(3-chloroanilino)-2′-[(1E)-prop-1-en-1-yl]spiro[cyclohexane-1,1′-indene]-4-carboxylic acid]", "Ki": 233},
      {"smiles": "COCCOc1cccc(N[C@]2(C(=O)O)CC[C@@]3(CC2)C(Br)=Cc2ccccc23)n1", "note": "[Example 80, (1s,4s)-2′-bromo-4-{[6-(2-methoxyethoxy)pyridin-2-yl]amino}spiro[cyclohexane-1,1′-indene]-4-carboxylic acid]", "Ki": 11800},
      {"smiles": "CCOc1cccc(C2=Cc3ccccc3[C@]23CC[C@@](Nc2cccc(Cl)c2)(C(=O)O)CC3)c1", "note": "[Example 313, (1s,4s)-4-(3-chloroanilino)-2′-(3-ethoxyphenyl)spiro[cyclohexane-1,1′-indene]-4-carboxylic acid]", "Ki": 385},
      {"smiles": "O=C(O)[C@]1(Nc2cccc(Cl)c2)CC[C@@]2(CC1)c1ccccc1CC2CCCOc1cncnc1", "note": "(some centres unmarked) [Example 450, (1r,4r)-4-(3-chloroanilino)-2′-{3-[(pyrimidin-5-yl)oxy]propyl}-2′,3′-dihydrospiro[cyclohexane-1,1′-indene]-4-carboxylic acid]", "Ki": 781},
      {"smiles": "COc1ccc2c(c1)[C@]1(CC[C@@](Nc3cccc(Cl)c3)(C(=O)O)CC1)C1(CCCC1)C2", "note": "[Example 89, (1r,4r)-4-(3-chloroanilino)-6′-methoxy-3′H-dispiro[cyclohexane-1,1′-indene-2′,1″-cyclopentane]-4-carboxylic acid]", "Ki": 2120},
      {"smiles": "O=C(O)[C@]1(Nc2cccc(Cl)c2)CC[C@]2(CC1)C(c1cc3ccccc3o1)=Cc1ccccc12", "note": "[Example 303, (1s,4s)-2′-(1-benzofuran-2-yl)-4-(3-chloroanilino)spiro[cyclohexane-1,1′-indene]-4-carboxylic acid]", "Ki": 2260},
      {"smiles": "Cc1cccc(C)c1C1=Cc2ccccc2[C@]12CC[C@@](Nc1cccc(Cl)c1)(C(=O)O)CC2", "note": "[Example 249, (1s,4s)-4-(3-chloroanilino)-2′-(2,6-dimethylphenyl)spiro[cyclohexane-1,1′-indene]-4-carboxylic acid]", "Ki": 19000},
      {"smiles": "Cn1cc(C2Cc3ccccc3[C@]23CC[C@@](Nc2cccc(Br)c2)(C(=O)O)CC3)cn1", "note": "(some centres unmarked) [Example 212, (1r,4r)-4-(3-bromoanilino)-2′-(1-methyl-1H-pyrazol-4-yl)-2′,3′-dihydrospiro[cyclohexane-1,1′-indene]-4-carboxylic acid]", "Ki": 9470},
      {"smiles": "O=C(O)[C@]1(Nc2cccc(Cl)c2)CC[C@@]2(CC1)c1ccccc1CC2[C@H]1C[C@@H]1COc1ccnc2ccsc12", "note": "(single isomer, unassigned) [Example 106, (1r,4r)-4-(3-chloroanilino)-2′-[(1R*,2S*)-2-{[(thieno[3,2-b]pyridin-7-yl)oxy]methyl}cyclopropyl]-2′,3′-dihydrospiro[cyclohexane-1,1′-indene]-4-carboxylic acid]", "Ki": 2260},
      {"smiles": "CN1c2ccccc2[C@]2(CC[C@@](Nc3cccc(Br)c3)(C(=O)O)CC2)C1=O", "note": "[Example 17, (1s,4s)-4-(3-bromoanilino)-1′-methyl-2′-oxo-1′,2′-dihydrospiro[cyclohexane-1,3′-indole]-4-carboxylic acid]", "Ki": 23100},
      {"smiles": "Cc1cccc(C2=Cc3ccccc3[C@]23CC[C@@](Nc2cccc(Cl)c2)(C(=O)O)CC3)c1", "note": "[Example 335, (1s,4s)-4-(3-chloroanilino)-2′-(3-methylphenyl)spiro[cyclohexane-1,1′-indene]-4-carboxylic acid]", "Ki": 889},
      {"smiles": "Cc1n[nH]c2cccc(OCCCC3Cc4ccccc4[C@]34CC[C@@](Nc3cccc(Cl)c3)(C(=O)O)CC4)c12", "note": "(mixture of isomers) [Example 453, (1r,4r)-4-(3-chloroanilino)-2′-{3-[(3-methyl-1H-indazol-4-yl)oxy]propyl}-2′,3′-dihydrospiro[cyclohexane-1,1′-indene]-4-carboxylic acid]", "Ki": 318},
      {"smiles": "C=CCOC1Cc2ccccc2[C@]12CC[C@@](Nc1cccc(Cl)c1)(C(=O)O)CC2", "note": "(some centres unmarked) [Example 122, (1s,4s)-4-(3-chloroanilino)-2′-[(prop-2-en-1-yl)oxy]-2′,3′-dihydrospiro[cyclohexane-1,1′-indene]-4-carboxylic acid]", "Ki": 3770},
      {"smiles": "O=C(O)[C@]1(Nc2cccc(Cl)c2)CC[C@@]2(CC1)c1ccccc1CC2c1coc2ccccc12", "note": "(single isomer, unassigned) [Example 284, (1r,4r)-2′-(1-benzofuran-3-yl)-4-(3-chloroanilino)-2′,3′-dihydrospiro[cyclohexane-1,1′-indene]-4-carboxylic acid]", "Ki": 1220},
      {"smiles": "COc1ccc2c(c1)[C@]1(CC[C@@](Nc3cccc(Cl)c3)(C(=O)O)CC1)C(Br)=C2", "note": "[Example 129, (1s,4s)-2′-bromo-4-(3-chloroanilino)-6′-methoxyspiro[cyclohexane-1,1′-indene]-4-carboxylic acid]", "Ki": 82.2},
      {"smiles": "O=C(O)[C@]1(Nc2cccc(Cl)c2)CC[C@@]2(CC1)c1ccccc1CC2CCCOc1ccccc1C(F)(F)F", "note": "(some centres unmarked) [Example 443, (1r,4r)-4-(3-chloroanilino)-2′-{3-[2-(trifluoromethyl)phenoxy]propyl}-2′,3′-dihydrospiro[cyclohexane-1,1′-indene]-4-carboxylic acid]", "Ki": 106},
      {"smiles": "O=C(O)[C@]1(Nc2cccc(C(F)F)c2)CC[C@]2(CC1)C(Br)=Cc1ccccc12", "note": "[Example 83, (1s,4s)-2′-bromo-4-[3-(difluoromethyl)anilino]spiro[cyclohexane-1,1′-indene]-4-carboxylic acid]", "Ki": 1360},
      {"smiles": "CC[C@H](COc1ccncc1)C[C@H]1Cc2ccccc2[C@]12CC[C@@](Nc1cccc(Cl)c1)(C(=O)O)CC2", "note": "[Example 542]", "Ki": 187},
      {"smiles": "O=C(NCCc1ccccc1)C1Cc2ccccc2[C@]12CC[C@@](Nc1cccc(Cl)c1)(C(=O)O)CC2", "note": "(single isomer, unassigned) [Example 405, (1r,4r)-4-(3-chloroanilino)-2′-[(2-phenylethyl)carbamoyl]-2′,3′-dihydrospiro[cyclohexane-1,1′-indene]-4-carboxylic acid]", "Ki": 15200},
      {"smiles": "CC1=Nc2ccccc2[C@]12CC[C@](Nc1cccc(Br)c1)(C(=O)O)CC2", "note": "[Example 22, (1r,4r)-4-(3-bromoanilino)-2′-methylspiro[cyclohexane-1,3′-indole]-4-carboxylic acid]", "Ki": 24100},
      {"smiles": "COc1ccccc1CCOCC1=Cc2ccccc2[C@]12CC[C@@](Nc1cccc(Cl)c1)(C(=O)O)CC2", "note": "[Example 414, (1s,4s)-4-(3-chloroanilino)-2′-{[2-(2-methoxyphenyl)ethoxy]methyl}spiro[cyclohexane-1,1′-indene]-4-carboxylic acid]", "Ki": 312},
      {"smiles": "Cc1cncnc1OCCCC1Cc2ccccc2[C@]12CC[C@@](Nc1cccc(Cl)c1)(C(=O)O)CC2", "note": "(some centres unmarked) [Example 441, (1r,4r)-4-(3-chloroanilino)-2′-{3-[(5-methylpyrimidin-4-yl)oxy]propyl}-2′,3′-dihydrospiro[cyclohexane-1,1′-indene]-4-carboxylic acid]", "Ki": 69.1},
      {"smiles": "O=C(O)[C@]1(Nc2cccc(Cl)c2)CC[C@@]2(CC1)c1ccccc1CC2[C@H]1C[C@@H]1COc1cccnc1", "note": "(single isomer, unassigned) [Example 114, (1r,4r)-4-(3-chloroanilino)-2′-[(1R*,2S*)-2-{[(pyridin-3-yl)oxy]methyl}cyclopropyl]-2′,3′-dihydrospiro[cyclohexane-1,1′-indene]-4-carboxylic acid]", "Ki": 27300},
      {"smiles": "O=C(O)[C@]1(Nc2cccc(Cl)c2)CC[C@]2(CC1)C(COCCc1ccc(F)cc1)=Cc1ccccc12", "note": "[Example 413, (1s,4s)-4-(3-chloroanilino)-2′-{[2-(4-fluorophenyl)ethoxy]methyl}spiro[cyclohexane-1,1′-indene]-4-carboxylic acid]", "Ki": 704},
      {"smiles": "COCC(COC)CC1=Cc2ccccc2[C@]12CC[C@@](Nc1cccc(Cl)c1)(C(=O)O)CC2", "note": "[Example 493, (1r,4r)-4-(3-chloroanilino)-2′-[3-methoxy-2-(methoxymethyl)propyl]spiro[cyclohexane-1,1′-indene]-4-carboxylic acid]", "Ki": 1780},
      {"smiles": "O=C(O)[C@]1(Nc2cccc(Cl)c2)CC[C@]2(CC1)C(C1CC1)=Cc1ccccc12", "note": "[Example 90, (1r,4r)-4-(3-chloroanilino)-2′-cyclopropylspiro[cyclohexane-1,1′-indene]-4-carboxylic acid]", "Ki": 2150},
      {"smiles": "COCCCC1Cc2ccccc2[C@]12CC[C@@](Nc1cccc(Cl)c1)(C(=O)O)CC2", "note": "(some centres unmarked) [Example 197, (1r,4r)-4-(3-chloroanilino)-2′-(3-methoxypropyl)-2′,3′-dihydrospiro[cyclohexane-1,1′-indene]-4-carboxylic acid]", "Ki": 1380},
      {"smiles": "Cc1cccc(CCOCC2=Cc3ccccc3[C@]23CC[C@@](Nc2cccc(Cl)c2)(C(=O)O)CC3)c1", "note": "[Example 411, (1s,4s)-4-(3-chloroanilino)-2′-{[2-(3-methylphenyl)ethoxy]methyl}spiro[cyclohexane-1,1′-indene]-4-carboxylic acid]", "Ki": 583},
      {"smiles": "CC1(C)CCC=C1C1=Cc2ccccc2[C@]12CC[C@@](Nc1cccc(Cl)c1)(C(=O)O)CC2", "note": "[Example 278, (1s,4s)-4-(3-chloroanilino)-2′-(5,5-dimethylcyclopent-1-en-1-yl)spiro[cyclohexane-1,1′-indene]-4-carboxylic acid]", "Ki": 11800},
      {"smiles": "COc1ccc(C2Cc3ccccc3[C@]23CC[C@@](Nc2cccc(Cl)c2)(C(=O)O)CC3)cc1C", "note": "(single isomer, unassigned) [Example 243, (1r,4r)-4-(3-chloroanilino)-2′-(4-methoxy-3-methylphenyl)-2′,3′-dihydrospiro[cyclohexane-1,1′-indene]-4-carboxylic acid]", "Ki": 273}
    ]}
  ]
}
